Measurements from patent US4889855A, “Heterocyclic compounds and their preparation and use” (priority 1987, dated 1989).
Blank lines part the entries; values can stand above or below the molecule they belong to.

Legend:
[1] = tested on: NMDA (N-methyl-D-aspartate) receptors; settings: background; cited from earlier work
[2] = biological target: quisqualate receptor; experiment: 3H-AMPA binding (Test 1); settings: displacement of 50% of the specific binding of 3H-AMPA (5 nM), rat cerebral cortical membranes, 0° C., 30 min
Excerpt: The quisqualate receptor binding activity of the compounds of the present invention can be illustrated by determining their capability for displacing radioactively labelled 2-amino-3hydroxy-5-methyl-4-isoxazolepropionic acid (AMPA) from the quisqualatee type receptors.
The displacement activity of the compounds may be shown by determining the IC50 value which represents the concentration (μg/ml) which causes a displacement of 50% of the specific binding of ^3 H-AMPA.
^3 H-AMPA binding (Test 1)
500 μl of thawed rat cerebral cortical membrane homogenate in Tris-HCl (30 mM), CaCl2 (2.5 mM) and KSCN (100 mM) pH 7.1 were incubated at 0° C. for 30 min. with 25μl ^3 H-AMPA (5 nM final concentration) and the test compound and buffer. Nonspecific binding was determined by incubation with L-glutamic acid (600 μM final concentration). The binding reaction was terminated by adding 5 ml of ice-cold buffer followed by filtration through Whatman GF/C glass fibre filters and 2×5 ml wash with ice-cold buffer. Bound radioactivity was measured by scintillation counting. IC50 was determined by Hill analysis of at least four concentrations of test compound.

[3] = tested on: quisqualate receptor; experiment: Antagonism of quisqualic acid induced 22Na+-release from striatal slices (Test 2); assay type: cell-based; settings: reduces quisqualic acid (2 μg/ml) stimulated 22Na+ efflux by 50%, rat striatal slices
Description: The quisqualate antagonism is measured by determining the EC50 value which represents the concentration which reduces the rate of quisqualic acid stimulated sodium efflux by 50%.
Antagonism of quisqualic acid induced ^22 Na^+ -release (Test 2)
Slices from rat striatum were preincubated with ^22 Na^+ for 30 min. After the ^22 Na^+ loading period, the slices were successively and every minute transferred through a series of tubes, each containing 1.5 ml of a non-radioactive physiological solution saturated with O2, with the help of a basket shaped sieve. Quisqualic acid (2 μg/ml) was present in the last 5 tubes and the compound to be tested was present in the same 5 tubes plus 3 tubes before. The amount of radioactivity in each washout tube as well as that left in the slices at the end of the experiment was measured by scintillation counting. EC50 -values were calculated by Hill analysis from at least three different concentrations of test compound as the concentration of test compound which reduces the efflux rate of ^22 Na^+ -ions to 50% of the efflux rate in the absence of test compound.

[4] = tested on: NMDA receptor; experiment: Inhibition of NMDA stimulated 3H-GABA release from cultured cerebral cortex interneurons (Test 3); assay type: cell-based; settings: inhibits 50% of NMDA (3 μg/ml) induced 3H-GABA release, mouse cerebral cortex interneurons
Excerpt: The NMDA antagonistic properties of the compounds is illustrated by determining their capability to antagonize NMDA stimulated ^3 H-GABA release from cultured mouse cortex neurons.
The NMDA antagonistic activity of the compounds may be shown by determining the IC50 value, which represents the concentration (μg/ml) which inhibits 50% of NMDA induced ^3 H-GABA release.
Inhibition of NMDA stimulated ^3 H-GABA release from cultured mouse cerebral cortex interneurons (Test 3) Release experiments are performed using the model described by Drejer et al. (Life Sci. 38, 2077 (1986)). To cerebral cortex interneurons cultured in petri dishes (30 mm) are added 100 μg/ml 3-vinyl-GABA one […] before the experiment in order to inhibit degradation of GABA in the neurons. 30 min before the experiment 5 μCi ^3 H-GAGA is added to each culture and after this preloading period the cells are washed twice with a HEPES (N-2 Hydroxyethylpiperazine-N'-2-ethanesulfonic acid) buffered saline (HBS) containing 10 mM HEPES, 135 mM NaCl, 5 mM KCl, 0.6 mM MgSO4, 1.0 mM CaCl2 and 6 mM D-glucose; pH 7 and placed in a superfusion system. This system consists of a peristaltic pump continuously delivering thermostated 37° C. superfusion medium from a reservoir to the top of a slightly-tilted petri dish. The cell monolayer at the bottom of the dish is covered with a piece of nylon mesh to facilitate dispersion of medium over the cell layer. The medium is continuously collected from the lower part of the dish and delivered to a fraction collector. Initially, the cells are superfused with HBS for 15 min (flow rate 2 ml/min). Then cells are stimulated for 30 sec every 4 min by changing the superfusion medium from HBS to a corresponding medium containing NMDA and antagonists according to the following scheme: […]
stimulation no. 1: 3 μg/ml NMDA stimulation no. 2: 3 μg/ml NMDA+0.3 μg/ml antagonist stimulation no. 3: 3 μg/ml NMDA+3 μg/ml antagonist
Test substances are dissolved in water or 48% ethanol. The final ethanol concentration in the assay must not exceed 0.1%.
The release of ^3 H-GABA in the presence of NMDA (stimulated relase in cpm) are corrected for the mean basal release (cpm) before and after the stimulation.
The stimulated release in the presence of antagonists are expressed relative to the stimulated release by NMDA alone and the IC50 value for the antagonist is calculated (the concentration (μg/ml) of the test substance which inhibits 50% of the NMDA induced ^3 H-GABA release) either from a dose response curve or from the formula: [formula] where Co is stimulated release in control assays and Cx is the stimulated release in the test assay (the calculation assumes normal mass-action interaction). 25-75% inhibition of the NMDA stimulation must be obtained, before calculation of IC50.

[5] = tested on: kainate receptors; settings: background; cited from earlier work
[6] = tested on: quisqualate receptors; settings: background; cited from earlier work

SMILES: O=C(O)[C@@H]1CCCN[C@H]1C(=O)O (relative stereo) [trans-2,3-PDA, trans-2,3-piperidine dicarboxylic acid]
agonist activity on NMDA receptors [1]: strong to moderate agonist activity

SMILES: O=[N+]([O-])c1cccc2c1c([N+](=O)[O-])cc1nc(O)c(O)nc12 [2,3-Dihydroxy-6,7-dinitrobenzo(f)quinoxaline]
Test 1 IC50 [2]: 0.06 µg/mL | Test 2 EC50 [3]: 2.8 µg/mL | Test 3 IC50 [4]: 0.3 µg/mL

SMILES: O=[N+]([O-])c1cc2nc(O)c(O)nc2c2c([N+](=O)[O-])cccc12 [2,3-Dihydroxy-6,10-dinitrobenzo(f)quinoxaline]
Test 1 IC50 [2]: 0.85 µg/mL | Test 3 IC50 [4]: 0.97 µg/mL

Test 1 IC50 [2]: 0.69 µg/mL | Test 2 EC50 [3]: 14 µg/mL | Test 3 IC50 [4]: 0.39 µg/mL
SMILES: O=[N+]([O-])c1cc2nc(O)c(O)nc2c2ccccc12 [2,3-Dihydroxy-6-nitrobenzo(f)quinoxaline]

Test 1 IC50 [2]: 0.61 µg/mL | Test 3 IC50 [4]: 1.5 µg/mL
SMILES: O=[N+]([O-])c1cc2nc(O)c(O)nc2c2cccnc12 [2,3-Dihydroxy-6-nitropyrido(2,3-f)quinoxaline]

SMILES: N[C@@H](CCC(=O)NCC(=O)O)C(=O)O [3-glutamyl-glycine]
antagonism / selectivity at kainate receptors [5]: some selectivity for kainate receptors

Test 1 IC50 [2]: 1.1 µg/mL | Test 2 EC50 [3]: 23 µg/mL
SMILES: Nc1cc2nc(O)c(O)nc2c2ccccc12 [6-Amino-2,3-dihydroxybenzo(f)quinoxaline]

Test 1 IC50 [2]: 9.2 µg/mL | Test 3 IC50 [4]: 0.25 µg/mL
SMILES: O=[N+]([O-])c1cccc2c(Br)cc3nc(O)c(O)nc3c12 [6-bromo-2,3-dihydroxy-10-nitrobenzo(f)quinoxaline]

Test 1 IC50 [2]: 0.17 µg/mL | Test 3 IC50 [4]: 0.092 µg/mL
SMILES: O=[N+]([O-])c1cc2nc(O)c(O)nc2c2c1CCCC2 [7,8,9,10-Tetrahydro-2,3-dihydroxy-6-nitrobenzo(f)quinoxaline]

SMILES: Cc1onc(O)c1CC(N)C(=O)O (stereo not drawn) [AMPA, 2-amino-3-hydroxy-5-methyl-4-isoxazolepropionic acid]
agonist activity on quisqualate receptors [6]: potent agonists

SMILES: N[C@H](CCCC(=O)O)C(=O)O [D-2-amino-adipic acid]
antagonist activity on NMDA receptors [1]: moderate antagonist activity

SMILES: N[C@H](CCCCCP(=O)(O)O)C(=O)O [D-APH, 2-amino-7-phosphonoheptanoic acid]
antagonist activity on NMDA receptors [1]: most potent and selective antagonists

SMILES: N[C@H](CCCP(=O)(O)O)C(=O)O [D-APV, 2-amino-5-phosphono-valeric acid]
antagonist activity on NMDA receptors [1]: most potent and selective antagonists

SMILES: N[C@H](CCC(=O)O)C(=O)O [D-glutamic acid]
agonist activity on NMDA receptors [1]: strong to moderate agonist activity

SMILES: CCOC(=O)CCC(N)C(=O)OCC (stereo not drawn) [GDEE, Glutamic acid diethyl esteer]
antagonist activity at quisqualate receptors [6]: selective but very weak antagonist | antagonism / selectivity at kainate receptors [5]: relatively insensitive to antagonism

SMILES: N[C@H](C(=O)O)c1cc(=O)[nH]o1 [Ibotenic acid]
agonist activity on NMDA receptors [1]: strong to moderate agonist activity

SMILES: N[C@@H](CCC(=O)O)C(=O)O [L-glutamic acid]
agonist activity on quisqualate receptors [6]: potent agonists

SMILES: N[C@@H](CCS(=O)(=O)O)C(=O)O [L-homocysteic acid]
agonist activity on NMDA receptors [1]: strong to moderate agonist activity

SMILES: N[C@H](CCC[C@H](N)C(=O)O)C(=O)O [diaminopimelic acid]
antagonist activity on NMDA receptors [1]: moderate antagonist activity

SMILES: N[C@@H](Cn1oc(=O)[nH]c1=O)C(=O)O [quisqualic acid]
agonist activity on quisqualate receptors [6]: activated selectively
